Legend:
EGFR L858R/T790M = EGFR L858R/T790M (Homo sapiens (Human), UniProt P00533, L858R/T790M); assay: TR-FRET assay for ERBB kinases; format: biochemical; conditions: geometric mean if measured more than once
In short: (§1)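 Compounds, serially diluted 3-fold in DMSO, were pre-incubated 10 min with kinase in HEPES pH 7.5 buffer with MgCl2 and DTT. Reactions were started with a substrate mix holding 3 mM ATP and 30 uM fluorescein-poly-GluTyr, run 10 min at room temperature, then quenched with Tb-pY20 antibody plus EDTA.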

EGFR WT = EGFR WT (Homo sapiens (Human), UniProt P00533); assay: TR-FRET assay for ERBB kinases; format: biochemical; conditions: geometric mean if measured more than once
EGFR WT, sequence (P00533 25-1210): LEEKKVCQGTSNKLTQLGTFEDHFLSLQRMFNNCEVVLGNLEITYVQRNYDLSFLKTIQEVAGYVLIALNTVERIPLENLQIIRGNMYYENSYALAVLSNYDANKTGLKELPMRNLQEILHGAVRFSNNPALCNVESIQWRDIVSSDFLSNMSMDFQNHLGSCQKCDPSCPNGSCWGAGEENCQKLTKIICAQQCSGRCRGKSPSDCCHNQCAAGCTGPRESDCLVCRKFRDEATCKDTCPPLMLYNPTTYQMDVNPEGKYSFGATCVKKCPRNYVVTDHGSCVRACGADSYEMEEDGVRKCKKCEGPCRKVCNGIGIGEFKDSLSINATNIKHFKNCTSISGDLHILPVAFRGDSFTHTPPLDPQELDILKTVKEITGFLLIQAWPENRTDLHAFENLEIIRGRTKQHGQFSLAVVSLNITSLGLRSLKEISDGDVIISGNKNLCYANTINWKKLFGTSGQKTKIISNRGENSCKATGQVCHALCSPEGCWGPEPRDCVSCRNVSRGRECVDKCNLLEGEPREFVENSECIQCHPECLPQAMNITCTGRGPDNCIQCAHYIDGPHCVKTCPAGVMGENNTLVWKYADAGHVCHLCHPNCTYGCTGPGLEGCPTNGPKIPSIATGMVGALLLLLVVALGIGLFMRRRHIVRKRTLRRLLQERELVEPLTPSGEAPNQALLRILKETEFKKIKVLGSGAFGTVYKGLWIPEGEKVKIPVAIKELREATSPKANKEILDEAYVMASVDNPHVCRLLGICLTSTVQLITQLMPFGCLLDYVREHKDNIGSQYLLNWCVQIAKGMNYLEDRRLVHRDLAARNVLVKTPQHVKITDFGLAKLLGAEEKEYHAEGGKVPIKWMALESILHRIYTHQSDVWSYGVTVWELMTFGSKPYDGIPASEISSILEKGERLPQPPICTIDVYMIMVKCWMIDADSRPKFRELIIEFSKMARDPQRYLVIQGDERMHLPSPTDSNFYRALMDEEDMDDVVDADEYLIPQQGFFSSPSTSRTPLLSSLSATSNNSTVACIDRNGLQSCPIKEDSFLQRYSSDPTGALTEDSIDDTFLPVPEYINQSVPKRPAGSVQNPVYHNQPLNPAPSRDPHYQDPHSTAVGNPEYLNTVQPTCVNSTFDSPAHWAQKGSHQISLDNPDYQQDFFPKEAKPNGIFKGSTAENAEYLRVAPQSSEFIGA
In short: as §1

EGFR L858R/T790M/C797S = EGFR L858R/T790M/C797S (Homo sapiens (Human), UniProt P00533, C797S/L858R/T790M); assay: TR-FRET assay for ERBB kinases; format: biochemical; conditions: geometric mean if measured more than once
In short: as §1

[1] = target: EGFR L858R/T790M/C797S triple mutant (H520*) (Homo sapiens (Human), UniProt P00533, C797S/L858R/T790M); assay: EGFR protein degradation assay (Western blot); format: cell-based; conditions: 72 hours, 300 nM to 10 nM
In short: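 EGFR loss in the triple-mutant line measured by immunoblot: clarified lysates normalised by BCA, run on 4-12% Bis-Tris gels, blotted to PVDF, probed with HRP anti-rabbit secondary. Before lysis, cells were dosed from 1, 0.3, 0.1, 0.03 and 0.01 mM DMSO stocks (not final concentrations) after overnight culture at 37° C.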

EGFR Δ19/746/750 T790M = EGFR Δ19/746/750 T790M (Homo sapiens (Human), UniProt P00533, DEL746-750/T790M); assay: TR-FRET assay for ERBB kinases; format: biochemical; conditions: geometric mean if measured more than once
EGFR Δ19/746/750 T790M, sequence (P00533 other isoform, or with tags, fused parts or gaps T790M/del 1-694/del 746-750 limits assumed): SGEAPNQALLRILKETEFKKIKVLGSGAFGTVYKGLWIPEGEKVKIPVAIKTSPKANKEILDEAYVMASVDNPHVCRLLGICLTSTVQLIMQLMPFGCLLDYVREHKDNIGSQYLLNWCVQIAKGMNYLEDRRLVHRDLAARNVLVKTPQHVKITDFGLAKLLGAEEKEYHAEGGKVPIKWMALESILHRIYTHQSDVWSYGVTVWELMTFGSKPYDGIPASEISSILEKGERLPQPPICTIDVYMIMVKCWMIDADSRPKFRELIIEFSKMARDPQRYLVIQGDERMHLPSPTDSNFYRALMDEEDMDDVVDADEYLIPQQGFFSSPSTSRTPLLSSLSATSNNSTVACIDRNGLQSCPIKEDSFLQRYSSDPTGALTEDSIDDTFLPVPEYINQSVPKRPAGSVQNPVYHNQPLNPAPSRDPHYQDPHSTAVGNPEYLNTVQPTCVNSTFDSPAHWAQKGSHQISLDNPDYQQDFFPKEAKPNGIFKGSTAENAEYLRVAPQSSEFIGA
In short: (§2)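 Compounds pre-incubated 10 min with kinase in HEPES pH 7.5 buffer (MgCl2, DTT, Pluronic), then reaction started with substrate mix (3 mM ATP, 30 µM fluorescein-poly-GluTyr, stock levels) for 10 min at room temperature. EDTA-quenched, detected by Tb-pY20 antibody TR-FRET (520/490 nm emission).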

EGFR Δ19/746/750 = EGFR Δ19/746/750 (Homo sapiens (Human), UniProt P00533, DEL746-750); assay: TR-FRET assay for ERBB kinases; format: biochemical; conditions: geometric mean if measured more than once
EGFR Δ19/746/750, sequence (P00533 other isoform, or with tags, fused parts or gaps del 1-694/del 746-750 limits assumed): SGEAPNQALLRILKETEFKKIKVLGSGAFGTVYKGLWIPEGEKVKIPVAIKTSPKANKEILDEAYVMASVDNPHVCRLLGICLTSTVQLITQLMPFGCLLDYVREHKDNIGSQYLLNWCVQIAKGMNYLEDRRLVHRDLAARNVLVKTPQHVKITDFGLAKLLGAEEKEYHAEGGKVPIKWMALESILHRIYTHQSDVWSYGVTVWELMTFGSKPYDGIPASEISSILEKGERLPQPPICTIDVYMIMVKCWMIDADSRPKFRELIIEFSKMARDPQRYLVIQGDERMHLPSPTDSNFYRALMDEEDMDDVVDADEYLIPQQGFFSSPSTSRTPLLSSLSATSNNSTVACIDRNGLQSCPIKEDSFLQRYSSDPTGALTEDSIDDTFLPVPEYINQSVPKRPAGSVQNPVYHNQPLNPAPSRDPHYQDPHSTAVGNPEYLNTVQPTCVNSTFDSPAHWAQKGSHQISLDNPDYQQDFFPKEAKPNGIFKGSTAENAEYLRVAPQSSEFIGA
In short: as §2

[2] = target: EGFR-wt (MDA-MB-231 or MCF7 or A549 or OVCAR8) (Homo sapiens (Human), UniProt P00533); assay: EGFR protein degradation assay (Western blot); format: cell-based; conditions: 72 hours, 300 nM to 10 nM
EGFR-wt (MDA-MB-231 or MCF7 or A549 or OVCAR8), sequence (P00533 25-1210): as the sequence (P00533 25-1210) above
In short: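 Cells carrying the relevant EGFR form were plated at 300,000 per well in 6-well plates and left overnight to attach. For harvest, cells were rinsed once in ice-cold PBS and lysed in 400 μl lysis buffer containing protease inhibitors. Lysates were cleared at 10 000 rpm for 10 minutes and their protein content measured by BCA. Then 10 μg per sample was separated by SDS/PAGE at 165V for 2 hours, and EGFR was detected by ECL on a Chemidoc.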

EGFR Exon 20 ASV (HeLa*) = EGFR Exon 20 ASV (HeLa*) (Homo sapiens (Human), UniProt P00533, DUP767-769); assay: EGFR protein degradation assay (Western blot); format: cell-based; conditions: 72 hours, 300 nM to 10 nM
EGFR Exon 20 ASV (HeLa*), sequence (P00533 other isoform, or with tags, fused parts or gaps dup 767-769): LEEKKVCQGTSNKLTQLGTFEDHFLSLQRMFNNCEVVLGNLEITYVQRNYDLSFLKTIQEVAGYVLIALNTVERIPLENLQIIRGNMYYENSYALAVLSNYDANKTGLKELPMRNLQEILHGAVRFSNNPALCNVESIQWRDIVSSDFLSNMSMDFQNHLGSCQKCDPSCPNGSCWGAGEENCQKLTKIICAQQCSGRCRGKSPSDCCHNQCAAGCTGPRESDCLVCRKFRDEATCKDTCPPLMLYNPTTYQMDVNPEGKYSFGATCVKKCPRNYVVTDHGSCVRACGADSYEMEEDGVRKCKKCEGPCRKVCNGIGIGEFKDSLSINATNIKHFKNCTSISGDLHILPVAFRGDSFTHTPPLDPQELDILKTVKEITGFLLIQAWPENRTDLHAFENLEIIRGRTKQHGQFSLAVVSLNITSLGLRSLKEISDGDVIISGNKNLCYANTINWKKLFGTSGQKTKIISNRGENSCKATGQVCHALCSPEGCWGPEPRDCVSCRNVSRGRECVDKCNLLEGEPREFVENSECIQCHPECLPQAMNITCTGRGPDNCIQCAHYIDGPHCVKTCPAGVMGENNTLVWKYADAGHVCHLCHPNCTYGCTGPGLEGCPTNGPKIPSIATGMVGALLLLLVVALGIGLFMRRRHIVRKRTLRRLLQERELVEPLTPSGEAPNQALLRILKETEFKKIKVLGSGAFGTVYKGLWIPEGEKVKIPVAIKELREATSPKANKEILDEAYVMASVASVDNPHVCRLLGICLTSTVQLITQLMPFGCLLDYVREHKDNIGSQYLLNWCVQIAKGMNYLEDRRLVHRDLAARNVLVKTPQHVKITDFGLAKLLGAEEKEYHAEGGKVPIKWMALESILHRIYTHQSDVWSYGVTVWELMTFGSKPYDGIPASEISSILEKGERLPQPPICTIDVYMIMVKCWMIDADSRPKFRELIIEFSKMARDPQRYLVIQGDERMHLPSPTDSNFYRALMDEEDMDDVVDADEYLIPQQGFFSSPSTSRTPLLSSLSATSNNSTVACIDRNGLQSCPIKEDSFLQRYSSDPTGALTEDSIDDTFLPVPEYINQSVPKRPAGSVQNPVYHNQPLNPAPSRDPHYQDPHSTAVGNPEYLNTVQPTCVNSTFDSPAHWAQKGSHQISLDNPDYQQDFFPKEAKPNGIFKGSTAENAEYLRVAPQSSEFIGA

EGFR Exon20NPG = EGFR Exon20NPG (Homo sapiens (Human), UniProt P00533, INS770NPG); assay: TR-FRET assay for ERBB kinases; format: biochemical; conditions: geometric mean if measured more than once
EGFR Exon20NPG, sequence (P00533 other isoform, or with tags, fused parts or gaps del 1-694/ins NPG behind 770 limits assumed): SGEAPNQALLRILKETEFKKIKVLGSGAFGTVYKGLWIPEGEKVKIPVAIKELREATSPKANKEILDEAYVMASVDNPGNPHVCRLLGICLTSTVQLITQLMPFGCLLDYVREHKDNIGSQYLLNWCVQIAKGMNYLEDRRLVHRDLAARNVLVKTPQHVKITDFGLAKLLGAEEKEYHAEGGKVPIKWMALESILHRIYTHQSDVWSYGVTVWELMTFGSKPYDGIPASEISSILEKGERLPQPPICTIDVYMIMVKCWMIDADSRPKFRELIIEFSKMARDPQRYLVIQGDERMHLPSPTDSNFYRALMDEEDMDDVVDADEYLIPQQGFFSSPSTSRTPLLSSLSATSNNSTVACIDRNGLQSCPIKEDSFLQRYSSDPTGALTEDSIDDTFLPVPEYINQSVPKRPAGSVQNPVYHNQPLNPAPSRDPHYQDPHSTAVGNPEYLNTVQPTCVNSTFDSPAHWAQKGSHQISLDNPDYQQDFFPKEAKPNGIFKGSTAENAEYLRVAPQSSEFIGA
In short: as §2

| SMILES | IC50 (EGFR L858R/T790M) | IC50 (EGFR WT) | IC50 (EGFR L858R/T790M/C797S) | EGFR protein remaining, EGFR L858R/T790M/C797S triple mutant [1] | IC50 (EGFR Δ19/746/750 T790M) | IC50 (EGFR Δ19/746/750) | EGFR protein remaining, EGFR-wt [2] | EGFR protein remaining, EGFR Exon 20 ASV (EGFR Exon 20 ASV (HeLa*)) | IC50 (EGFR Exon20NPG) |
| --- | --- | --- | --- | --- | --- | --- | --- | --- | --- |
| COC1CCN(c2nccc(Nc3cc4c(cn3)nc(COCCN3CCN(c5ccc(OCCCN6CCN(c7ccc8c(c7)C(=O)N(C7CCC(=O)NC7=O)C8=O)CC6)cc5)CC3)n4C(C)C)n2)CC1 (stereo not drawn) [Example 301, 2-(2,6-dioxopiperidin-3-yl)-5-(4-(3-(4-(4-(2-((1-isopropyl-6-((2-(4-methoxypiperidin-1-yl)pyrimidin-4-yl)amino)-1H-imidazo[4,5-c]pyridin-2-yl)methoxy)ethyl)piperazin-1-yl)phenoxy)propyl)piperazin-1-yl)isoindoline-1,3-dione] | 0.24 µM | 2.8 µM | 0.034 µM | C (>80% EGFR protein remaining after 72 hours of incubation with the test compound at a concentration of 300 nM) | 0.27 µM | 1.6 µM | – | – | – |
| Cc1ncsc1-c1ccc([C@H](C)NC(=O)[C@@H]2C[C@@H](O)CN2C(=O)[C@@H](NC(=O)COCCOCCCNCC2CN(c3nn(C(C)C)c4cc(Nc5ccnc(-c6cnn(S(=O)(=O)C7CC7)c6)n5)ncc34)C2)C(C)(C)C)cc1 [compound 308] | 0.00091 µM | 0.12 µM | 0.00027 µM | B (≤80% and >50% EGFR protein remaining after 72 hours of incubation with the test compound at a concentration between 300 nM and 10 nM) | 0.0021 µM | 0.053 µM | – | – | – |
| Cc1ncsc1-c1ccc([C@H](C)NC(=O)[C@@H]2C[C@@H](O)CN2C(=O)[C@@H](NC(=O)COCCCOc2ccc(N3CCN(CCOCc4nc5cnc(Nc6ccnc(-c7cnn(S(=O)(=O)C8CC8)c7)n6)cc5n4C(C)C)CC3)cc2)C(C)(C)C)cc1 [compound 306] | 0.053 µM | 13 µM | 0.016 µM | A (≤50% EGFR protein remaining after 72 hours of incubation with the test compound at a concentration between 300 nM and 10 nM) | 0.021 µM | 0.38 µM | – | – | – |
| Cc1ncsc1-c1ccc([C@H](C)NC(=O)[C@@H]2C[C@@H](O)CN2C(=O)[C@@H](NC(=O)CN2CCN(CCOCCOCCOCCOCC#Cc3cccc4c3C(=O)N(C(C(=O)Nc3nccs3)c3cc(F)ccc3O)C4)CC2)C(C)(C)C)cc1 (stereo partly drawn) [compound 309] | 0.12 µM | 0.0072 µM | 0.025 µM | C (>80% EGFR protein remaining after 72 hours of incubation with the test compound at a concentration of 300 nM) | 5.1 µM | 1.9 µM | – | – | – |
| Cc1ncsc1-c1ccc([C@H](C)NC(=O)[C@@H]2C[C@@H](O)CN2C(=O)[C@@H](NC(=O)COCCOCCOCCN2CCN(CCOCC#Cc3cccc4c3C(=O)N(C(C(=O)Nc3nccs3)c3cc(F)ccc3O)C4)CC2)C(C)(C)C)cc1 (stereo partly drawn) [compound 310] | 0.11 µM | 0.14 µM | 0.022 µM | B (≤80% and >50% EGFR protein remaining after 72 hours of incubation with the test compound at a concentration between 300 nM and 10 nM) | 8.4 µM | 6 µM | – | – | – |
| Cc1ncsc1-c1ccc([C@H](C)NC(=O)[C@@H]2C[C@@H](O)CN2C(=O)[C@@H](NC(=O)COCCN2CCN(CCOCCOCCOCC#Cc3cccc4c3C(=O)N(C(C(=O)Nc3nccs3)c3cc(F)ccc3O)C4)CC2)C(C)(C)C)cc1 (stereo partly drawn) [compound 311] | 0.065 µM | 0.097 µM | 0.016 µM | B (≤80% and >50% EGFR protein remaining after 72 hours of incubation with the test compound at a concentration between 300 nM and 10 nM) | 4.6 µM | 9 µM | – | – | – |
| Cc1ncsc1-c1ccc(CNC(=O)[C@@H]2C[C@@H](O)CN2C(=O)[C@H](C(C)C)N2Cc3ccccc3C2=O)c(OCCOCCOCCN2CCN(Cc3ccc(-c4cc5c(NCc6ccccc6Cl)ncnc5[nH]4)cc3)CC2)c1 [Example 108, (2S,4R)—N-(2-(2-(2-(2-(4-(4-(4-((2-Chlorobenzyl)amino)-7H-pyrrolo[2,3-d]pyrimidin-6-yl)benzyl)piperazin-1-yl)ethoxy)ethoxy)ethoxy)-4-(4-methylthiazol-5-yl)benzyl)-4-hydroxy-1-((S)-3-methyl-2-(1-oxoisoindolin-2-yl)butanoyl)pyrrolidine-2-carboxamide] | 10 µM | 0.77 µM | 7.8 µM | – | – | – | C (>80% EGFR protein remaining after 72 hours of incubation with the test compound at a concentration of 300 nM) | C (>80% EGFR protein remaining after 72 hours of incubation with the test compound at a concentration of 300 nM) | 0.98 µM |
| Cc1ncsc1-c1ccc(CNC(=O)[C@@H]2C[C@@H](O)CN2C(=O)[C@H](C(C)C)N2Cc3ccccc3C2=O)c(OCCOCCOCCOCCOCCN2CCN(Cc3ccc(-c4cc5c(NCc6ccccc6Cl)ncnc5[nH]4)cc3)CC2)c1 [compound 110] | 8.6 µM | 0.77 µM | 12 µM | – | – | – | C (>80% EGFR protein remaining after 72 hours of incubation with the test compound at a concentration of 300 nM) | C (>80% EGFR protein remaining after 72 hours of incubation with the test compound at a concentration of 300 nM) | 1.8 µM |
| CC(C)n1nc(N2CCN(CC3CCN(c4ccc5c(c4)C(=O)N(C4CCC(=O)NC4=O)C5=O)CC3)CC2)c2cnc(Nc3ccnc(-c4cnn(S(=O)(=O)C5CC5)c4)n3)cc21 (stereo not drawn) [compound 312] | 0.00067 µM | 0.095 µM | 0.00035 µM | B (≤80% and >50% EGFR protein remaining after 72 hours of incubation with the test compound at a concentration between 300 nM and 10 nM) | 0.0049 µM | 0.17 µM | – | – | – |
| CC(C)n1nc(N2CC(CN[C@H]3C[C@H](Oc4ccc5c(c4)C(=O)N(C4CCC(=O)NC4=O)C5=O)C3)C2)c2cnc(Nc3ccnc(-c4cnn(S(=O)(=O)C5CC5)c4)n3)cc21 (stereo partly drawn) [compound 319] | 0.0023 µM | 0.0042 µM | 0.0008 µM | A (≤50% EGFR protein remaining after 72 hours of incubation with the test compound at a concentration between 300 nM and 10 nM) | 0.0003 µM | 0.0013 µM | – | – | – |
| CC(C)n1nc(N2CC(CN3CCN(CC4CCN(c5ccc6c(c5)C(=O)N(C5CCC(=O)NC5=O)C6=O)CC4)CC3)C2)c2cnc(Nc3ccnc(-c4cnn(S(=O)(=O)C5CC5)c4)n3)cc21 (stereo not drawn) [compound 314] | 0.098 µM | 0.089 µM | 0.02 µM | C (>80% EGFR protein remaining after 72 hours of incubation with the test compound at a concentration of 300 nM) | 5.2 µM | 10 µM | – | – | – |
| O=C1CCC(N2C(=O)c3ccc(OCCN4CCN(Cc5ccc(C6Cc7c(NCc8ccccc8Cl)ncnc7N6)cc5)CC4)cc3C2=O)C(=O)N1 (stereo not drawn) [compound 101] | 3.4 µM | 0.012 µM | 3.6 µM | – | – | – | C (>80% EGFR protein remaining after 72 hours of incubation with the test compound at a concentration of 300 nM) | C (>80% EGFR protein remaining after 72 hours of incubation with the test compound at a concentration of 300 nM) | 0.069 µM |

Source: patent US10994015B2, “EGFR proteolysis targeting chimeric molecules and associated methods of use” (Arvinas Operations, Inc., priority 2016, dated 2021)
